Measured values reported in patent US9162992B2, “Compounds and compositions for treatment of breathing control disorders or diseases” (GALLEON PHARMACEUTICALS, INC., priority 2010, dated 2015).

Key:
[1] = Stability as a function of pH 2-6 (1 mg/mL, 0.25 mg/mL at pH 6; 10 mM citric acid and glycine); assay type: physicochemical; parameters: growth in impurities / Assay: unit not given here; settings: for Impurities: in %
Method: Buffer solutions containing ca. 10 mM each of citric acid and glycine in the pH range 2-6 were prepared by titrating 250 mL of a single stock containing both buffer agents with 1N NaOH/1N HCl and removing 50 mL aliquots at predetermined pH values. XXXVI solutions at 1 mg/mL were prepared in buffers of pH 2-5 by dissolving ˜25 mg of XXXVI in ˜23 mL of a given buffer, adjusting the pH to the target and making up the volume to 25.0 mL in a volumetric flask. (XXXVI) solution at pH 6 was prepared similarly, but at a lower drug concentration of 0.25 mg/mL using 6.68 mg of (XXXVI).
Each of the buffered XXXV solutions was filtered through a 0.2 μm polyether sulfone syringe filter into a volumetric flask, which had been previously rinsed with 70% ethanol and dried in a laminar flow hood. Following filtration, each buffered (XXXV) solution was split into 10 aliquots (9 aliquots of 2.5 mL each and 1 aliquot of 2 mL) in 5 mL serum vials previously rinsed with 70% ethanol and dried in a laminar flow hood. Filtration and preparation of aliquots were performed in a laminar flow hood. The 2 mL aliquot of each buffered (XXXV) solution was submitted for T0 analysis (HPLC assay and related substances).
Of the nine 2.5 mL aliquots, three aliquots were stored at each 40° C. and 60° C., two aliquots were stored at 25° C. and one aliquot was stored at −70° C. Samples stored at 40° C. and at 60° C. were evaluated for physical appearance, pH, assay and related substances after 1 week, 2 weeks and 4 weeks of storage. Samples at 25° C. and −70° C. served as controls to be analyzed if necessary.

[2] = tested on: hypoxic ventilatory response; test: Hypoxic ventilatory response (HVR) in the rat, plethysmography; assay type: in vivo; settings: 0.03 mg/kg/min infusion 50 min; 12% O2 for 20 min; vs vehicle
Method: Rats with a pre-cannulated jugular vein (for administering drugs) were acclimated to plethysmography chambers for a minimum of 60 minutes, or until animals were no longer restless. Each animal was dosed with compound (XXXVI), labeled as cmpd (A), at 0.03 mg/kg/min via infusion into the jugular vein catheter for a period of 50 minutes. After a period of 20 minutes, an isocapnic hypoxic mixture (12% O2 balanced N2) was administered into all chambers using a gas mixer (CWE inc. GSM-3 gas mixer) for 20 minutes. After this time, the gas mixer was turned off, resulting in normal room air pumped into the chambers. Ten minutes later, the infusion pumps were turned off, and all animals were given a 20 minute recovery period, followed by a post-study analysis of rat health and behavior. […] Results are illustrated in FIG. 3.

CCCNc1nc(NCCC)nc(N(C)OC)n1 [XXXV, N-(4,6-Bis-n-propylamino-[1,3,5]triazin-2-yl)-N,O-dimethyl-hydroxylamine]
physical appearance ([1]; all samples, up to 4 weeks at 40° C. and 60° C.): remained clear, colorless and particle free | stability at pH 2 compared to remaining pH values ([1]; assay and impurities data): significantly less stable at pH 2 | growth in impurities ([1]; pH 3-6, 40° C. and 60° C.): > 0.2 | Assay ([1]; target pH 2, 40° C. 1 wk): 0.997 | pH ([1]; target pH 2, 40° C. 1 wk): 2.02 | Impurities ([1]; target pH 2, 40° C. 1 wk): 0.58 | Assay ([1]; target pH 2, 40° C. 2 wk): 0.975 | pH ([1]; target pH 2, 40° C. 2 wk): 1.98 | Impurities ([1]; target pH 2, 40° C. 2 wk): 1.48 | Assay ([1]; target pH 2, 40° C. 4 wk): 0.970 | pH ([1]; target pH 2, 40° C. 4 wk): 2.00 | Impurities ([1]; target pH 2, 40° C. 4 wk): 2.49 | Assay ([1]; target pH 2, 60° C. 1 wk): 0.929 | pH ([1]; target pH 2, 60° C. 1 wk): 2.00 | Impurities ([1]; target pH 2, 60° C. 1 wk): 3.83 | Assay ([1]; target pH 2, 60° C. 2 wk): 0.754 | pH ([1]; target pH 2, 60° C. 2 wk): 1.99 | Impurities ([1]; target pH 2, 60° C. 2 wk): 9.89 | Assay ([1]; target pH 2, 60° C. 4 wk): 0.754 | pH ([1]; target pH 2, 60° C. 4 wk): 2.01 | Impurities ([1]; target pH 2, 60° C. 4 wk): 14.34 | Assay ([1]; target pH 2, initial): 1.02 | pH ([1]; target pH 2, initial): 1.96 | Assay ([1]; target pH 3, 40° C. 1 wk): 0.984 | pH ([1]; target pH 3, 40° C. 1 wk): 3.05 | Assay ([1]; target pH 3, 40° C. 2 wk): 0.987 | pH ([1]; target pH 3, 40° C. 2 wk): 3.05 | Impurities ([1]; target pH 3, 40° C. 2 wk): 0.19 | Assay ([1]; target pH 3, 40° C. 4 wk): 0.991 | pH ([1]; target pH 3, 40° C. 4 wk): 3.06 | Impurities ([1]; target pH 3, 40° C. 4 wk): 0.41 | Assay ([1]; target pH 3, 60° C. 1 wk): 0.971 | pH ([1]; target pH 3, 60° C. 1 wk): 3.07 | Impurities ([1]; target pH 3, 60° C. 1 wk): 0.71 | Assay ([1]; target pH 3, 60° C. 2 wk): 0.952 | pH ([1]; target pH 3, 60° C. 2 wk): 3.03 | Impurities ([1]; target pH 3, 60° C. 2 wk): 1.20 | Assay ([1]; target pH 3, 60° C. 4 wk): 0.952 | pH ([1]; target pH 3, 60° C. 4 wk): 3.07 | Impurities ([1]; target pH 3, 60° C. 4 wk): 2.19 | Assay ([1]; target pH 3, initial): 0.984 | pH ([1]; target pH 3, initial): 3.02 | Assay ([1]; target pH 4, 40° C. 1 wk): 0.999 | pH ([1]; target pH 4, 40° C. 1 wk): 3.94 | Assay ([1]; target pH 4, 40° C. 2 wk): 1.006 | pH ([1]; target pH 4, 40° C. 2 wk): 3.96 | Impurities ([1]; target pH 4, 40° C. 2 wk): 0.17 | Assay ([1]; target pH 4, 40° C. 4 wk): 1.012 | pH ([1]; target pH 4, 40° C. 4 wk): 3.96 | Impurities ([1]; target pH 4, 40° C. 4 wk): 0.22 | Assay ([1]; target pH 4, 60° C. 1 wk): 0.992 | pH ([1]; target pH 4, 60° C. 1 wk): 3.94 | Assay ([1]; target pH 4, 60° C. 2 wk): 0.979 | pH ([1]; target pH 4, 60° C. 2 wk): 3.96 | Impurities ([1]; target pH 4, 60° C. 2 wk): 0.52 | Assay ([1]; target pH 4, 60° C. 4 wk): 0.979 | pH ([1]; target pH 4, 60° C. 4 wk): 3.97 | Impurities ([1]; target pH 4, 60° C. 4 wk): 1.02 | Assay ([1]; target pH 4, initial): 1.01 | pH ([1]; target pH 4, initial): 4.00 | Assay ([1]; target pH 5, 40° C. 1 wk): 0.989 | pH ([1]; target pH 5, 40° C. 1 wk): 4.90 | Assay ([1]; target pH 5, 40° C. 2 wk): 0.992 | pH ([1]; target pH 5, 40° C. 2 wk): 4.95 | Impurities ([1]; target pH 5, 40° C. 2 wk): 0.26 | Assay ([1]; target pH 5, 40° C. 4 wk): 0.977 | pH ([1]; target pH 5, 40° C. 4 wk): 4.97 | Assay ([1]; target pH 5, 60° C. 1 wk): 0.977 | pH ([1]; target pH 5, 60° C. 1 wk): 4.92 | Assay ([1]; target pH 5, 60° C. 2 wk): 0.947 | pH ([1]; target pH 5, 60° C. 2 wk): 4.93 | Impurities ([1]; target pH 5, 60° C. 2 wk): 0.62 | Assay ([1]; target pH 5, 60° C. 4 wk): 0.947 | pH ([1]; target pH 5, 60° C. 4 wk): 4.98 | Impurities ([1]; target pH 5, 60° C. 4 wk): 1.10 | Assay ([1]; target pH 5, initial): 1.01 | pH ([1]; target pH 5, initial): 5.03 | Assay ([1]; target pH 6, 40° C. 1 wk): 0.257 | pH ([1]; target pH 6, 40° C. 1 wk): 5.88 | Assay ([1]; target pH 6, 40° C. 2 wk): 0.253 | pH ([1]; target pH 6, 40° C. 2 wk): 6.02 | Impurities ([1]; target pH 6, 40° C. 2 wk): 0.25 | Assay ([1]; target pH 6, 40° C. 4 wk): 0.251 | pH ([1]; target pH 6, 40° C. 4 wk): 5.98 | Impurities ([1]; target pH 6, 40° C. 4 wk): 0.28 | Assay ([1]; target pH 6, 60° C. 1 wk): 0.247 | pH ([1]; target pH 6, 60° C. 1 wk): 5.87 | Impurities ([1]; target pH 6, 60° C. 1 wk): 0.56 | Assay ([1]; target pH 6, 60° C. 2 wk): 0.234 | pH ([1]; target pH 6, 60° C. 2 wk): 6.03 | Impurities ([1]; target pH 6, 60° C. 2 wk): 0.87 | Assay ([1]; target pH 6, 60° C. 4 wk): 0.234 | pH ([1]; target pH 6, 60° C. 4 wk): 6.01 | Impurities ([1]; target pH 6, 60° C. 4 wk): 1.65 | Assay ([1]; target pH 6, initial): 0.260 | pH ([1]; target pH 6, initial): 6.05

CCCNc1nc(NCCC)nc(N(C)OC)n1.O=S(=O)(O)O [XXXVI, N-(4,6-Bis-n-propylamino-[1,3,5]triazin-2-yl)-N,O-dimethyl-hydroxylamine hydrogen sulfate]
minute ventilation, hypoxic ventilatory response [2]: significantly potentiates the hypoxic ventilatory response
